Source: patent publication US7705144B2, “Dyes of improved optical brightness and/or fluorescence and compositions containing them” (priority 2007, dated 2010)
Entries after “also recorded” stand apart in the source; their conditions may differ.

Columns and labels:
[1] = unmodified precursor dye; cited from earlier work
[2] = Solubility of the dyes in water, mineral oil and organic solvents; format: physicochemical; details: for solubility in organic solvents: which solvents dissolve the dye
[3] = Stability of kaolin pigment powder in oil and in water; format: physicochemical; details: product deposited on kaolin; oil / mineral oil and water
Method: A small amount of the product was dissolved in acetone (10 mg in 20 mL), which was slowly added to kaolin (10 g). The solution was heated to 30° C. and the solvent allowed to slowly evaporate with mixing.
A small amount of the product was dissolved in methylene chloride (50 mg in 30 mL), which was slowly added to kaolin (5 g). The suspension was heated to 30° C. and the solvent allowed to slowly evaporate with mixing.

SMILES | solubility in acetone, alcohol, and chlorinated solvents [2] | solubility in mineral oil [2] | solubility in water [2] | solubility in organic solvents [2] | solubility in water of the precursor dye [1] | also measured
N=C1C=CC(=C(c2ccc(N)cc2)c2ccc(N)cc2)C=C1 [pararosaniline] | – | – | – | – | water soluble | –
C=Cc1ccc(Nc2nc(OCCCCCCCC)nc(Oc3ccc(C(c4ccccc4)(c4ccccc4)c4ccccc4)cc3)n2)cc1 [Compound II] | show solubility | insoluble | insoluble | solubility only to dichloromethane and toluene; also recorded: only soluble in boiling toluene or dichloromethane | – | solubility in organic solvents ([2]; listed as Example 2): insoluble to common organic solvents, except for hot dichloromethane and toluene
Cc1cc2nc3ccc(N(C)C)cc3[s+]c2cc1N.[Cl-] [toluidine blue O] | – | – | – | – | water soluble | –
O=C1OC2(c3ccc(O)cc3Oc3cc(O)ccc32)c2ccccc21 [fluorescein] | – | – | – | – | soluble in water | –

Continued, in another order:

solubility in acetone, alcohol, and chlorinated solvents [2] | solubility in mineral oil [2] | solubility in water [2] | solubility in organic solvents [2] | SMILES | solubility in water of the precursor dye [1] | also measured
– | – | – | soluble only in alcohol or acetone | CC1CCC(Oc2nc(Nc3ccc(CO)cc3)nc(OC3CCC(C)CC3C(C)C)n2)C(C(C)C)C1 (stereo not shown) [Compound III] | – | stability of the resulting powder in oil and in water [3]: stable in water and in mineral oil
show solubility | insoluble | insoluble | – | CCCCCCCCOc1nc(Nc2cc3sc4cc(=[N+](C)C)ccc-4nc3cc2C)nc(N(c2ccccc2)c2ccccc2)n1 [Compound I] | – | solubility in methanol ([2]; methanol): soluble; stability of the resulting powder in oil and in water [3]: stable in oil and in water
dissolves | insoluble | not soluble | soluble only in alcohol or acetone | CC1CCC(Oc2nc(Oc3ccc4c(-c5ccccc5C(=O)O)c5ccc(=O)cc-5oc4c3)nc(OC3CCC(C)CC3C(C)C)n2)C(C(C)C)C1 (stereo not shown) [Compound IV] | – | –
